This note sets out measurements from patent US20190256499A1, “SUBSTITUTED QUINOXALINE DERIVATIVES AS INHIBITORS OF PFKFB” (priority 2016, published 2019).

SMILES strings stand for the structures. pIC50: −log10 of the molar value. ≈ marks a conversion by molar mass, not a printed value. Read-outs that look alike come from different tables or passages of the source. Some results are limits rather than exact numbers.

The nature of data set [1]: Kinetic solubility. It counts as physicochemical. As to conditions: phosphate buffer 20 mM pH 7.4, 2% DMSO, room temperature; for solubility kinetic at 120 min: phosphate buffer, pH 7.4, aqueous buffer, kinetic from dmso stock. The method, then: Kinetic solubility of compounds of the present invention were tested according the following procedure.
(a) Buffer Solution Phosphate Buffer 20 mM pH 7.4 is prepared using Sorensen Phosphate Buffer 0.2 M pH 7.4 (EMS) in a 1000 mL volumetric flask (b) 2% DMSO in Phosphate Buffer 20 mM pH 7.4 is prepared by using 1 mL Dimethylsulfoxide (Merck) and 49 ml Sorensen Phosphate Buffer 20 mM pH 7.4 (c) Acetonitrile/Methanole/Eluent A (1:1:2; v/v/v) is prepared by using 50 mL Acetonitrile (Merck), 50 mL Methanol (Merck) and 100 mL Eluent A (d) Eluent A is prepared by using 1 mL Formic Acid (Merck) and 999 mL Ultrapure water (e) Eluent B is prepared by using 1 mL Formic Acid (Merck) and 999 mL Acetonitrile (Merck) (f) Filtration plate: Millipore MultiScreen HTS HV (0.45 μm) 96 Well (Millipore)
98 μL buffer solution (a) is added into a well of a 96 well filtration plate (f). Then 2 μL of 10 mM test compound solution in DMSO (Remp tube) is added. The filtration plate is incubated at room temperature for 120 minutes while agitating at 250 rpm and centrifuged with the PP-Plate (g) as receiver plate below (2500 rpm, 3 min). The 50 μL of filtrate is taken from the receiver plate and mixed with 50 μL of 2% DMSO in buffer pH 7.4 solution (b) (dilution factor=2) in a HPLC Vial (i)+(j).
Standard is prepared by diluting 2 μL of the same 10 mM test compound solution (Remp tube) diluted with 198 μL Acetonitrile/Methanole/Eluent A (1:1:2; v/v/v) (c) to prepare a 100 μM standard solution in a HPLC Vial (i)+(j).
Column temperature: 37° C. Autosampler: room temperature (approx. 25° C.) Gradient programme: […]
Injection volume: 10 μL Wavelength: Suitable wavelength (maximum sensitivity) selected out of wavelength range of 190-400 nm using a DAD detector.
L [μg/mL]=(area sample*concentration standard*dilution factor sample)/(area standard*dilution factor standard)
S [mol/L]=[…] Calculation: […]

Data set [2] has as its target T1, Human recombinant His-tagged PFKFB3 (Homo sapiens, UniProt Q16875).
T1 construct: His; made in house
Put plainly: PFKFB3 IC50 determination assay (modified ADP-Glo in vitro kinase assay). It counts as biochemical. As to conditions: ATP 20 μM, fructose-6-phosphate 2 μM, 2 h, rt. The method, then:
In vitro kinase assay used to determine IC50 values for tested inhibitors is based on a modified ADP-Glo™ system (Promega) and consists of two parts:
1. Kinase reaction—performed in optimized conditions. At this step PFKFB3 phosphorylates its substrate fructose-6-phosphate using ATP as a source of phosphate to produce fructose-2,6-bisphosphate and ADP. Reaction is performed at Km values for ATP and substrate using optimized buffer composition and time of the reaction. Human recombinant His-tagged PFKFB3 (PFKFB3 BATCH II SEC) with confirmed activity is produced and purified in-house. 2. Detection of ADP as a product of the reaction using ADP-Glo™ system. This part is conducted by using the commercially available kit ADP-Glo™ Kinase Assay (Promega, cat. No# V9103) according to manufacturer's instruction, modified by 5× dilutions of assay reagents (both ADP-Glo™ Reagent and Kinase Detection Solution). Reproducibility and reliability of this modification is confirmed in an optimization process.
Test compounds are dissolved in DMSO and then transferred to the V-bottom 96-well plate. For IC50 determination ten 10× serial dilutions starting from 100 μM are prepared.
Two mixes are prepared on ice: Mix 1—containing appropriate kinase amount in 2× reaction buffer (100 mM TRIS pH 8.0) and Mix 2—containing 2.31× concentrated substrate (Fructose-6-phosphate) and ATP in MilliQ water. 15 μL per well of Mix 1 is transferred to assay wells of 96-well white plate. Next, 2 μl of 15× concentrated test compound in DMSO is added to Mix 1 for 20 min pre-incubation, followed by addition of Mix 2 (13 μl/well). Total reaction volume is 30 μL per well. Samples are tested in duplicates. Final concentration of DMSO in the reaction is 6.7%. Conditions needed for performing PFKFB3 (PFKFB3 BATCH II SEC) in vitro kinase assay are given below:
This protocol is based on Technical Bulletin, ADP-Glo™ Kinase Assay (Promega) and is adapted to 96-well plate containing 30 μL reaction mixture:
30 μL of 5× diluted ADP-Glo™ Reagent is added to each well of 96-well plate containing 30 μL of reaction mixture. The plate is incubated for 90 minutes on a shaker at rt. 60 μL of 5× diluted Kinase Detection Solution is added to each well of 96-well plate containing 60 μL of the solution (ratio of kinase reaction volume to ADP-Glo™ Reagent volume to Kinase Detection Solution volume is maintained at 1:1:2). Plate is incubated for 40 minutes on a shaker at rt, protected from light. Luminescence is measured in the plate reader Synergy 2 (BioTek).
Luminescent readouts for compounds tested in 10 concentrations (routinely from 100 μM to […], […] serial dilutions) in duplicates, as well as for positive control, are first normalized to no-substrate negative control by its subtraction. In the next step, % of normalized positive control is calculated for each data point and plotted against test compound concentration:
% of control—percent of positive control normalized to no-substrate negative control Lumcpd—luminescence of test compound Lumneg—luminescence of no-substrate negative control Lumpos—luminescence of positive control
IC50 parameter is determined by the GraphPad Prism 5.0 software [log(inhibitor) vs. response—Variable slope (four parameters)].
For orientation: ADP-Glo turns the ADP formed in a reaction into a luminescent signal.

A short description of data set [3]: Microsomal stability (intrinsic clearance), mouse liver microsomes. The format is in vitro ADME. Set-up: microsomal CLint: dose or concentration left out as unconfirmed. As to conditions: for microsomal CLint: mouse, liver microsomes, pH 7.4, mouse liver microsomes. An excerpt: (§1) A microsomal stability assay is used to measure in vitro clearance (Clint). The assay involves measuring the rate of disappearance of a compound due to its intrinsic attitude to be metabolized (“intrinsic” meaning that the disappearance is not affected by other properties like permeability, binding etc. that play a role when quantifying in vivo clearance). The microsomal stability (intrinsic clearance, Clint) and thus metabolic stability is generally given as μl/min/mg protein. It can be visualized as the volume of solution that 1 mg of microsomes is able to clear of the compound in one minute.
(§2) A Tecan Genesis workstation (RSP 150/8) was used for to perform the microsomal incubations. Analysis was carried out using a Waters ACQUITY UPLC system coupled to an ABSciex API3000 mass spectrometer. Data analysis was performed using Assay Explorer (Symyx).
(§3) Mobile phases: A=0.1% formic acid in water; B=acetonitrile
(§4) Flow rate: 0.750 mL/min; Detection: ESI, MRM; Injection: 10 μL; Column temperature: 50° C.
(§5) Potassium phosphate buffer: 0.05 M potassium phosphate buffer pH 7.4 containing 1 mM MgCl2 NADPH (nicotinamide adenine dinucleotide phosphate): 22.5 mg NADPH-Na4 in 1.8 ml potassium phosphate buffer Acetonitrile: 50 Vol % acetonitrile (1 volume acetonitrile, 1 volume water) DMSO: 20 Vol % DMSO in water Stock solution of 20 mg/ml human or mouse liver microsomes (protein)/ml in phosphate buffer Stock solution of 10 mM compound in 100% DMSO
In general terms: Microsomes from liver hold many membrane-bound enzymes, among them those of drug oxidation.

Data set [4] is described as follows: Microsomal stability (intrinsic clearance), human liver microsomes. The format is in vitro ADME. Set-up: microsomal CLint: dose or concentration left out as unconfirmed. Particulars: for microsomal CLint: human, liver microsomes, pH 7.4, human liver microsomes.
Excerpt: as §1, §2, §3, §4, §5

Where [5] appears, read: human recombinant PFKFB3 25 nM, read-out: PFKFB IC50.

T1 sequence (Q16875 whole entry): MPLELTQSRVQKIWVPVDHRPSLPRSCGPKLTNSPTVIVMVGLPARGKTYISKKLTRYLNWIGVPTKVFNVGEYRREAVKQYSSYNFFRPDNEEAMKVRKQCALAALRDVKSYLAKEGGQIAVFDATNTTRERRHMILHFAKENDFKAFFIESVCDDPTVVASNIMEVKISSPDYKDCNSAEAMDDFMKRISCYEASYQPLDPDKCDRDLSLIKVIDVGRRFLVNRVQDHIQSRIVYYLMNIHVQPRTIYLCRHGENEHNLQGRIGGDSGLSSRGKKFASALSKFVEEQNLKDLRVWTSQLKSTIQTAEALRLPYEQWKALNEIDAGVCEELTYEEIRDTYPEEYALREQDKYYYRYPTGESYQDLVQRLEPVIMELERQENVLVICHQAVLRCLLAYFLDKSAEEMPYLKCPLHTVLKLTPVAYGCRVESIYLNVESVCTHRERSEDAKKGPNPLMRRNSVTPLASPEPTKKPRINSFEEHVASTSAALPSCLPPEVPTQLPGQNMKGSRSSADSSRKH

In the case of `COc1ccc([C@H](Nc2cc(-c3ccc4ccn(C)c4c3)c3nccnc3c2)c2cnnn2C)cn1` [Comparative Example 2, N—[(S)-(6-methoxypyridin-3-yl)(1-methyl-1H-1,2,3-triazol-5-yl)methyl]-8-(1-methyl-1H-indol-6-yl)quinoxalin-6-amine, reference compound], the kinetic solubility (as a rule, solubility judged after dilution from a stock solution rather than from solid) at 120 min in data set [1] amounted to 22 µM (≈ 10.5 µg/mL). Besides, the pIC50 – broadly, −log10 of the IC50, conventionally taken in molar units – in data set [2] (setting [5]) was 8.46. For the same molecule, the microsomal CLint (as a rule, the rate of metabolic loss divided by the concentration) is 134 µL/min/mg in data set [3] and 113 µL/min/mg in data set [4].
`Cn1cc([C@H](Nc2cc(-c3ccc4ccn(C)c4c3)c3nccnc3c2)c2cccnc2)cn1` (single isomer, unassigned) [Example 18]: the kinetic solubility at 120 min in data set [1] came to 39 µM (≈ 17.4 µg/mL). In addition, the pIC50 in data set [2] (setting [5]) was 8.19. Moreover, the microsomal CLint in data set [3] stood at 148 µL/min/mg; in data set [4], 142 µL/min/mg.
`Cn1ccc2ccc(-c3cc(NC(c4cccnc4)c4ccc(=O)[nH]n4)cc4nccnc34)cc21` (single isomer, unassigned) [Example 3]: the Kinetic solubility in data set [1] (120 minutes) is 64 µM. In data set [2] (setting [5]), the negative logarithm of the IC50 (pIC50) is 6.74. For the same molecule, the “CLint Mouse” value in data set [3] (mouse liver microsomes) is 92 μl/min/mg prot. For the same molecule, the “CLint Human” value in data set [4] (human liver microsomes) turned out to be 61 μl/min/mg prot.
The molecule `Cn1cc([C@H](Nc2cc(-c3ccc4ccn(C)c4c3)c3nccnc3c2)c2nccn2C)cn1` (single isomer, unassigned) [Example 14] registered a solubility (kinetic) at 120 min in data set [1] of 36 µM (≈ 16.1 µg/mL). Also, the pIC50 in data set [2] (setting [5]) was 6.19. Also, the microsomal CLint in data set [3] was 67 µL/min/mg; in data set [4], 57 µL/min/mg.
The like results for `Cn1ccc([C@@H](Nc2cc(-c3ccc4ccn(C)c4c3)c3nccnc3c2)c2cnnn2C)n1` (single isomer, unassigned) [Example 29] were, in that order, 108 µM (≈ 48.5 µg/mL), 7.66, 69 µL/min/mg and 51 µL/min/mg.
For `Cn1cc([C@@H](Nc2cc(-c3ccc4ccn(C)c4c3)c3nccnc3c2)c2cccnc2)cn1` (single isomer, unassigned) [Example 17], the kinetic solubility at 120 min in data set [1] was 42 µM (≈ 18.7 µg/mL). Moreover, in data set [2] (setting [5]), the pIC50 was 6.92. Moreover, the microsomal CLint turned out to be 95 µL/min/mg in data set [3] and 172 µL/min/mg in data set [4].
The molecule `COc1ccc([C@H](Nc2cc(-c3ccc4ccn(C)c4c3)c3nccnc3c2)c2cccnc2)nn1` (single isomer, unassigned) [Example 6] returned a solubility (kinetic) at 120 min in data set [1] of 18 µM (≈ 8.52 µg/mL). The pIC50 in data set [2] (setting [5]) was 6.05. The intrinsic clearance (microsomal CLint) in data set [3] came to 134 µL/min/mg; in data set [4] it was 174 µL/min/mg.
Turning to `COc1ccc(C(Nc2cc(-c3ccc4ccn(C)c4c3)c3nccnc3c2)c2cnnn2C)cn1` (racemic) [Comparative Example 1, [(6-Methoxy-pyridin-3-yl)-(3-methyl-3H-[1,2,3]triazol-4-yl)-methyl]-[8-(1-methyl-1H-indol-6-yl)-quinoxalin-6-yl]-amine, reference compound], the pIC50 in data set [2] (PFKFB IC50, human recombinant PFKFB3 25 nM) was 7.60. In addition, the microsomal CLint in data set [3] came out at 188 µL/min/mg; in data set [4], 163 µL/min/mg.
For `Cn1cc([C@@H](Nc2cc(-c3ccc4ccn(C)c4c3)c3nccnc3c2)c2cnnn2C)cn1` (single isomer, unassigned) [Example 9], in data set [1], the solubility (kinetic) at 120 min is 110 µM (≈ 49.4 µg/mL). In addition, the pIC50 in data set [2] (setting [5]) was 7.06. For the same molecule, the microsomal CLint in data set [3] turned out to be 146 µL/min/mg; in data set [4], 52 µL/min/mg.
As for `Cn1cc([C@@H](Nc2cc(-c3cnc4ccn(C)c4c3)c3nccnc3c2)c2cccnc2)cn1` (single isomer, unassigned) [Example 26], the kinetic solubility at 120 min in data set [1] turned out to be 192 µM (≈ 85.7 µg/mL). For the same molecule, the pIC50 in data set [2] (setting [5]) is 5.96. Moreover, the microsomal CLint in data set [3] was 58 µL/min/mg; in data set [4], 67 µL/min/mg.
On to `Cn1cc([C@@H](Nc2cc(-c3ccc4ccn(C)c4c3)c3nccnc3c2)c2nccn2C)cn1` (single isomer, unassigned) [Example 15], for which the solubility (kinetic) at 120 min in data set [1] was 48 µM (≈ 21.5 µg/mL). The pIC50 in data set [2] (setting [5]) was 6.25. For the same molecule, the intrinsic metabolic clearance (microsomal CLint) in data set [3] stood at 88 µL/min/mg; in data set [4] it was 76 µL/min/mg.
For `CC(C)[C@@H](Nc1cc(-c2ccc3ccn(C)c3c2)c2nccnc2c1)c1cccnc1` (single isomer, unassigned) [Example 20], in that order: 6 µM (≈ 2.45 µg/mL), 7.48, above 500 µL/min/mg and above 500 µL/min/mg.
`COc1ccc([C@@H](Nc2cc(-c3ccc4ccn(C)c4c3)c3nccnc3c2)c2cnnn2C)cn1` [Comparative Example 3, N—[(R)-(6-methoxypyridin-3-yl)(1-methyl-1H-1,2,3-triazol-5-yl)methyl]-8-(1-methyl-1H-indol-6-yl)quinoxalin-6-amine, reference compound]: the kinetic solubility at 120 min in data set [1] was found to be 22 µM (≈ 10.5 µg/mL). Moreover, the pIC50 in data set [2] (setting [5]) is 6.28. Also, the microsomal CLint is 287 µL/min/mg in data set [3] and 267 µL/min/mg in data set [4].
As to `Cn1cc([C@@H](Nc2cc(-c3ccc4ccn(C)c4c3)c3nccnc3c2)c2cncn2C)cn1` (single isomer, unassigned) [Example 12], the pIC50 in data set [2] (setting [5]) was 7.36.
